From patent publication US10087165B2, “Fluoroquinolones and use thereof to treat bacterial infections” (UNIVERSITÉ PIERRE ET MARIE CURIE—PARIS 6 (UPMC), priority 2014, dated 2018)
Converted amounts (≈) assume the structure as drawn. Like-named read-outs stand apart in the source and are kept apart here.

Assays:
[1] = system: M. tuberculosis H37Rv strain; assay: Minimal effective dosage in the murine TB model; assay type: in vivo, Balb/C/J female mice; design: Mice weight: unit not given here; conditions: for Survival: No. death: 10 mice
Method: Four-week-old Balb/C/J female mice were infected intravenously with 10^6 CFU of M. tuberculosis H37Rv strain. On the day following the infection (D1), 10 mice were sacrificed to determine the exact baseline values of spleen weight and CFU counts in the lungs. The remaining mice were allocated to the following treatment groups: an untreated negative control group for survival monitoring, a positive control group treated for 1 month with isoniazid (INH) 25 mg/kg/d, […] test groups were treated with Quin18 and Quin19 at increasing dosages (25 mg/kg/d; 50 mg/kg/d; 100 mg/kg/d; 150 mg/kg/d) given by oral gavage, and two additional test groups were treated intravenously with Quin18 25 mg/kg/d and 100 mg/kg/d. All the groups contained 10 mice and were treated from D1 to D28, 5 days a week. The parameters used for assessing the severity of infection and the effectiveness of treatments were survival rate, spleen weight, gross lung lesions and CFU counts in the lungs.
The minimal effective dosage was defined as the minimal dosage able to prevent mortality of the mice, spleen enlargement and the occurrence of gross lung lesions. CFU counts were considered to be a more precise way of determining the dose-ranging efficacy of Quin18 and Quin19.
Survival rates between groups were plotted on a Kaplan-Meier curve and compared using the log-rank test.

M. tuberculosis H37Rv = assay: microbe, parasite or virus in culture; assay type: cell-based; conditions: for MIC: Mycobacterium tuberculosis
[2] = Acute toxicity in healthy female CD-1 mice after a single oral treatment; assay type: in vivo; conditions: for Macroscopic autopsy: Observations: sacrifice at end of study
Method: The aim of this study was to evaluate the acute toxicity of two new compounds (Quin 18 and Quin 19) in healthy female CD-1 after a single oral treatment at D0.
Toxicity of treatment was evaluated by monitoring of animals (general signs of pharmacologic and toxicity effects, morbidity, mortality and evident signs of toxicity, as well as twice-weekly monitoring for clinical signs and body weight) until the end of the experiment (D14). At the end of the experiment, animals were sacrificed and macroscopic autopsy was performed.
Mice of each group were administered by per os (PO) injection at 10 ml/kg according to the standard operating procedure No. TEC-078. The recommended volume for per os (PO) administration in mice is 10 ml/kg.
Morbidity, mortality and evident signs of toxicity of mice were considered daily from D0 until the end of the experiment (D14 or D15).
Monitoring of mice for detailed behavioral and clinical observations was performed twice a week from D0 until the end of the experiment (D14 or D15) according to the standard operating procedures No. TEC-192.
Body weight of mice was monitored at D1, D2 and then twice a week until the end of the experiment (D14 or D15) according to the standard operating procedures No. TEC-108. Weight loss was assessed against the starting weight of each mouse at D0.
During the course of the experiment, animals were sacrificed if any of the following occurs: • Signs of suffering (cachexia, weakening, difficulty to move or to eat), • Compound toxicity (hunching, convulsions), • 25% body weight loss on any day. Sacrifice of Animals
At D14 or D15, animals were be sacrificed by CO2 inhalation and a macroscopic autopsy was performed.

[3] = target: M. tuberculosis DNA gyrase (Mycobacterium tuberculosis, UniProt P9WG45+P9WG47); assay: biochemical
Sequence of M. tuberculosis DNA gyrase (P9WG47 whole entry): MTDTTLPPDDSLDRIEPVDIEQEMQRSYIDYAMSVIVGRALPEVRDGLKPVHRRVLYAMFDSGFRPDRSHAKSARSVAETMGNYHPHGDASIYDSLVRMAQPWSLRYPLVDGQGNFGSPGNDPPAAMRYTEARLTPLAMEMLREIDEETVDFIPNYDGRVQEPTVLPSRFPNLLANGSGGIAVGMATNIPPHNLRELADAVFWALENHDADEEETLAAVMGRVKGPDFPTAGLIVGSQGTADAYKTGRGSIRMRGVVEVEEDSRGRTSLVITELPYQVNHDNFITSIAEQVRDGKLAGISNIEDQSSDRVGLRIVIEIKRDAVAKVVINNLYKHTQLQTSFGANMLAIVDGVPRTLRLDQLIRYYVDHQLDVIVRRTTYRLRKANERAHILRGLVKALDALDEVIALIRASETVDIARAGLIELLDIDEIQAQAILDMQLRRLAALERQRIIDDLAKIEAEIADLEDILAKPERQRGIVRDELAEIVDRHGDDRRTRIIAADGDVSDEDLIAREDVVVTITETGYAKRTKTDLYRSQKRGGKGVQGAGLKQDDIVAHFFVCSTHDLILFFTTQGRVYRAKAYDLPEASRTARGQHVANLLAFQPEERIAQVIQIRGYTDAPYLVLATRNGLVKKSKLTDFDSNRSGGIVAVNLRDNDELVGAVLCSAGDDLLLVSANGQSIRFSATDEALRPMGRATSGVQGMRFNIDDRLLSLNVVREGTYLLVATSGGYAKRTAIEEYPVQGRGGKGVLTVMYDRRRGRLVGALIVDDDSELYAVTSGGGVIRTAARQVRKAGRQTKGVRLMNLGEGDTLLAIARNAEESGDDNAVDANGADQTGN
Sequence of M. tuberculosis DNA gyrase (P9WG45 whole entry): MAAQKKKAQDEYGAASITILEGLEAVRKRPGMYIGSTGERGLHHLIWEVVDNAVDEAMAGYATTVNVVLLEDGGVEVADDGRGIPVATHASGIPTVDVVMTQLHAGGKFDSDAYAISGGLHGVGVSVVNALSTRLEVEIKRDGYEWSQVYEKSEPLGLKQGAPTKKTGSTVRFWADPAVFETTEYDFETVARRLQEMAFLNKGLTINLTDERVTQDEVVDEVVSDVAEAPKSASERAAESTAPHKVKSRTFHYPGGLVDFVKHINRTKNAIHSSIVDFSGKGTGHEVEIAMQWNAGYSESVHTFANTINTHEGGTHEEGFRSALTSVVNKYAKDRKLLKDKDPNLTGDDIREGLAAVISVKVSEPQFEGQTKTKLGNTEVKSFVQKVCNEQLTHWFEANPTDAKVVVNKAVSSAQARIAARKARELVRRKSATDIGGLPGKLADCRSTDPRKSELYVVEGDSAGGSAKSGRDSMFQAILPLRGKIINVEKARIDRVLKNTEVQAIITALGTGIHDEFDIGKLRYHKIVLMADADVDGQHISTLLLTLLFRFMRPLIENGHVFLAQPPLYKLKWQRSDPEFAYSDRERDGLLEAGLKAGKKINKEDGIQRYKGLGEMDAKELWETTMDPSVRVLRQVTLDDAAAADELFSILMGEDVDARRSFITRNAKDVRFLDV

Structure (SMILES): CCCCCCCCN1CCN(c2c(F)cc3c(=O)c(C(=O)O)cn(C4CC4)c3c2OC)CC1 [Quin 18, 1-cyclopropyl-6-fluoro-8-methoxy-7-(4-octylpiperazin-1-yl)-4-oxo-1,4-dihydroquinoline-3-carboxylic acid]
- Mice weight ([1]; 25 mg/kg/j, Gavage): 19.4 ± 0.9
- Spleen weight ([1]; 25 mg/kg/j, Gavage): 258.6 ± 155 mg
- Survival: No. death ([1]; 25 mg/kg/j, Gavage, D1 to D28, 5 days a week): 0
- Mice weight ([1]; 25 mg/kg/j, Intravenously): 20 ± 1
- Spleen weight ([1]; 25 mg/kg/j, Intravenously): 391 ± 89.7 mg
- Survival: No. death ([1]; 25 mg/kg/j, Intravenously): 0
- Mice weight ([1]; 50 mg/kg/j, Gavage): 20 ± 1.6
- Spleen weight ([1]; 50 mg/kg/j, Gavage): 231 ± 63.3 mg
- Survival: No. death ([1]; 50 mg/kg/j, Gavage): 0
- Mice weight ([1]; 100 mg/kg/j, Gavage): 19.4 ± 1.5
- Spleen weight ([1]; 100 mg/kg/j, Gavage): 210 ± 104.1 mg
- Survival: No. death ([1]; 100 mg/kg/j, Gavage): 0
- Mice weight ([1]; 100 mg/kg/j, Intravenously): 20 ± 1.1
- Spleen weight ([1]; 100 mg/kg/j, Intravenously): 400 ± 7.7 mg
- Survival: No. death ([1]; 100 mg/kg/j, Intravenously): 1
- Mice weight ([1]; 150 mg/kg/j, Gavage): 20.3 ± 0.8
- Spleen weight ([1]; 150 mg/kg/j, Gavage): 239.8 ± 129.3 mg
- Survival: No. death ([1]; 150 mg/kg/j, Gavage): 0
- Efficacy in a mouse model of tuberculosis (in words) ([1]; given orally): outstanding efficacy
- Spleen weights compared with untreated group (in words) ([1]; treated intravenously): spleen weights similar than the untreated group
- Survival compared with untreated group (in words) ([1]; whatever the dosage (25, 50, 100 and 150 mg/kg/d) and the administration route): statistically superior to untreated group
- antibacterial activity against wild-type M. tuberculosis strain (in words) (M. tuberculosis H37Rv; H37Rv): high antibacterial activity
- MIC (M. tuberculosis H37Rv; H37RV, Table 3, read-out: MIC M. tuberculosis H37Rv): 0.12 µM (≈ 0.0568 µg/mL)
- MIC (M. tuberculosis H37Rv; H37Rv, Table 2, read-out: MIC (M. tuberculosis) WT): ≤ 0.12 µM
- Loss of body weight (in words) ([2]; Group A1: 100 mg/kg PO Q1Dx1): did not exhibited any loss of body weight
- Tolerance (in words) ([2]; Group A1: 100 mg/kg PO Q1Dx1, polysorbate 80 0.4%, with sonication): well tolerated
- Mean body weight (MBW) ([2]; Group A1: 100 mg/kg PO Q1Dx1, with sonication, D1): 31.33 ± 0.8 g
- Mean body weight (MBW) ([2]; Group A1: 100 mg/kg PO Q1Dx1, with sonication, D2): 31.2 ± 0.7 g
- Mean body weight (MBW) ([2]; Group A1: 100 mg/kg PO Q1Dx1, with sonication, D3): 30.3 ± 0.53 g
- Mean body weight (MBW) ([2]; Group A1: 100 mg/kg PO Q1Dx1, with sonication, D4): 30.47 ± 0.78 g
- Mean body weight (MBW) ([2]; Group A1: 100 mg/kg PO Q1Dx1, with sonication, D7): 31.63 ± 0.49 g
- Mean body weight (MBW) ([2]; Group A1: 100 mg/kg PO Q1Dx1, with sonication, D11): 32.3 ± 1.37 g
- Mean body weight (MBW) ([2]; Group A1: 100 mg/kg PO Q1Dx1, with sonication, D14): 31.77 ± 0.76 g
- Macroscopic autopsy: Observations ([2]; Group A1: 100 mg/kg PO Q1Dx1): NTR
- Mean body weight (MBW) ([2]; Group A1: polysorbate 80 0.4%, 10 mg/ml with sonication, 100 mg/kg PO Q1Dx1, D0, 100 mg/kg): 31.5 ± 1.48 g
- Loss of body weight (in words) ([2]; Group A2: 200 mg/kg PO Q1Dx1): did not exhibited any loss of body weight
- Tolerance (in words) ([2]; Group A2: 200 mg/kg PO Q1Dx1, polysorbate 80 0.4%, with sonication): well tolerated
- Mean body weight (MBW) ([2]; Group A2: 200 mg/kg PO Q1Dx1, with sonication, D1): 31.13 ± 1.01 g
- Mean body weight (MBW) ([2]; Group A2: 200 mg/kg PO Q1Dx1, with sonication, D2): 30.27 ± 0.74 g
- Mean body weight (MBW) ([2]; Group A2: 200 mg/kg PO Q1Dx1, with sonication, D3): 30.7 ± 0.44 g
- Mean body weight (MBW) ([2]; Group A2: 200 mg/kg PO Q1Dx1, with sonication, D7): 31.67 ± 0.49 g
- Mean body weight (MBW) ([2]; Group A2: 200 mg/kg PO Q1Dx1, with sonication, D10): 31.73 ± 0.95 g
- Mean body weight (MBW) ([2]; Group A2: 200 mg/kg PO Q1Dx1, with sonication, D14): 32.6 ± 1.35 g
- Macroscopic autopsy: Observations ([2]; Group A2: 200 mg/kg PO Q1Dx1): NTR
- Mean body weight (MBW) ([2]; Group A2: polysorbate 80 0.4%, 20 mg/ml with sonication, 200 mg/kg PO Q1Dx1, D0, 200 mg/kg): 30.2 ± 1.15 g
- Loss of body weight (in words) ([2]; Group A3: 100 mg/kg PO Q1Dx1): did not exhibited any loss of body weight
- Tolerance (in words) ([2]; Group A3: 100 mg/kg PO Q1Dx1, polysorbate 80 0.4%): well tolerated
- Mean body weight (MBW) ([2]; Group A3: 100 mg/kg PO Q1Dx1, without sonication, D1): 29.8 ± 1.05 g
- Mean body weight (MBW) ([2]; Group A3: 100 mg/kg PO Q1Dx1, without sonication, D2): 30.4 ± 1.25 g
- Mean body weight (MBW) ([2]; Group A3: 100 mg/kg PO Q1Dx1, without sonication, D4): 30 ± 1.01 g
- Mean body weight (MBW) ([2]; Group A3: 100 mg/kg PO Q1Dx1, without sonication, D7): 31.33 ± 0.74 g
- Mean body weight (MBW) ([2]; Group A3: 100 mg/kg PO Q1Dx1, without sonication, D11): 32.3 ± 2.02 g
- Mean body weight (MBW) ([2]; Group A3: 100 mg/kg PO Q1Dx1, without sonication, D15): 32.17 ± 1.94 g
- Macroscopic autopsy: Observations ([2]; Group A3: 100 mg/kg PO Q1Dx1): NTR
- Mean body weight (MBW) ([2]; Group A3: polysorbate 80 0.4%, 10 mg/ml without sonication, 100 mg/kg PO Q1Dx1, D0, 100 mg/kg): 29.9 ± 1.25 g
- Loss of body weight (in words) ([2]; Group A4: 200 mg/kg PO): did not exhibited any loss of body weight
- Mean body weight (MBW) ([2]; Group A4: 200 mg/kg PO 2Q1Dx1, without sonication, D1): 29.73 ± 1.22 g
- Mean body weight (MBW) ([2]; Group A4: 200 mg/kg PO 2Q1Dx1, without sonication, D2): 30.2 ± 1.31 g
- Mean body weight (MBW) ([2]; Group A4: 200 mg/kg PO 2Q1Dx1, without sonication, D5): 30 ± 1.45 g
- Mean body weight (MBW) ([2]; Group A4: 200 mg/kg PO 2Q1Dx1, without sonication, D9): 30.93 ± 3.04 g
- Mean body weight (MBW) ([2]; Group A4: 200 mg/kg PO 2Q1Dx1, without sonication, D13): 31.73 ± 2.64 g
- Mean body weight (MBW) ([2]; Group A4: 200 mg/kg PO 2Q1Dx1, without sonication, D14): 31.33 ± 1.63 g
- Macroscopic autopsy: Observations ([2]; Group A4: 200 mg/kg PO 2Q1Dx1): NTR
- Tolerance (in words) ([2]; Group A4: 200 mg/kg PO, polysorbate 80 0.4%): well tolerated
- Mean body weight (MBW) ([2]; Group A4: polysorbate 80 0.4%, 10 mg/ml without sonication, 200 mg/kg PO 2Q1Dx1 (2 hours between the 2 injections), D0, 200 mg/kg): 29.5 ± 0.89 g
- Autopsy, macroscopic observations (in words) ([2]; all treated groups): No particular sign was observed
- Dose up to which well tolerated (maximal solubility) ([2]; in polysorbate 80 0.4%, PO, female mice): up to 200 mg/kg
- Signs of toxicity at the dose levels tested (in words) ([2]; mice): no signs of toxicity
- IC50 [3]: 195 µM
